Legend:
[1] = Ability to inhibit proliferation in a mixture of human lymphocytes from two unrelated donors in MLR (human mixed lymphocyte reaction); type: functional, cell-based
[2] = biological target: Dihydroorotate dehydrogenase (quinone), mitochondrial (Homo sapiens, UniProt Q02127); assay: Immunosuppressive effect in an isolated enzyme assay using partially purified Dihydroorotate dehydrogenase from human liver for inhibition of the formation of orotate from radiolabeled dihydroorotate
Sequence of Dihydroorotate dehydrogenase (quinone), mitochondrial (Q02127 whole entry): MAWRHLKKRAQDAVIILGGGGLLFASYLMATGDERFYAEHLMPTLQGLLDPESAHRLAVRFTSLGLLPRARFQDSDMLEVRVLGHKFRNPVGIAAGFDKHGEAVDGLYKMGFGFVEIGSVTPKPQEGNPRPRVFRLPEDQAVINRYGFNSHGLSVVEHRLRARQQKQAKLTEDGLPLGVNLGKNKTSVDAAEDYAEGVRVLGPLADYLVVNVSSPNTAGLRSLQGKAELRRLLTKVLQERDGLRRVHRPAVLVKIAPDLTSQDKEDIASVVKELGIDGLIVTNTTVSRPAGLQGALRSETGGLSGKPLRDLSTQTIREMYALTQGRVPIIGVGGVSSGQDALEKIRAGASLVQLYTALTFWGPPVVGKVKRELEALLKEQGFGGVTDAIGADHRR

Row | Compound | Ki [2] [nM] | IC50 [1] [nM]
1 | Cc1c(-c2cccc3c(-c4ccccc4)cccc23)nc2ccc(F)cc2c1C(=O)O | 26 | 150
2 | Cc1c(N2CCc3c(-c4ccccc4F)cccc32)nc2ccc(F)cc2c1C(=O)O | 24 | 2.8
3 | COc1cccc(-c2cccc3c(-c4nc5ccc(F)cc5c(C(=O)O)c4C)cn(C)c23)c1 | 32 | 190
4 | Cc1c(Nc2cccc(-c3ccccc3)c2)nc2ccc(F)cc2c1C(=O)O | 83 | 340
5 | Cc1c(-c2cn(C)c3c(-c4ccccc4)cccc23)nc2ccc(F)cc2c1C(=O)O | 27 | 140
6 | COc1cc(-c2ccccc2)c2c(c1)N(c1nc3ccc(F)cc3c(C(=O)O)c1C)CC2 | 22 | 35
7 | Cc1c(-n2ccc3c(-c4ccccc4)cccc32)nc2ccc(F)cc2c1C(=O)O | 4.5 | 380
8 | Cc1c(N2CCc3c(-c4ccccc4)cccc32)nc2ccc(F)cc2c1C(=O)O | 15 | 26
9 | Cc1c(-n2cnc3c(-c4ccccc4)cccc32)nc2ccc(F)cc2c1C(=O)O | 71 | 4700
10 | Cc1c(-c2ccc(-c3ccccc3F)cc2)nc2ccc(F)cc2c1C(=O)O [BREQUINAR SODIUM] | – | 15
11 | COc1ccccc1-c1cccc2c1CCN2c1nc2ccc(F)cc2c(C(=O)O)c1C | 30 | 4.1
12 | Cc1c(N(C)c2cccc(-c3ccccc3)c2)nc2ccc(F)cc2c1C(=O)O | 240 | > 10000
13 | Cc1c(N2CCc3c(-c4ccccc4)cc(F)cc32)nc2ccc(F)cc2c1C(=O)O | 30 | 41
14 | Cc1c(OCc2cccc(-c3ccccc3)c2)nc2ccc(F)cc2c1C(=O)O | 330 | > 10000

More lines, main results first:

Row | Ki [2] [nM] | Compound | IC50 [1] [nM]
15 | > 1000 | Cc1c(Oc2ccccc2)nc2ccc(F)cc2c1C(=O)O | > 10000
16 | 24 | Cc1c(N2CCc3c(-c4cccc(C(F)(F)F)c4)cccc32)nc2ccc(F)cc2c1C(=O)O | 0.41
17 | > 430 | Cc1c(Nc2ccc(-c3ccccc3)cc2)nc2ccc(F)cc2c1C(=O)O | > 10000
18 | 25 | Cc1ccccc1-c1cccc2c1CCN2c1nc2ccc(F)cc2c(C(=O)O)c1C | 1.6
19 | > 200 | Cc1c(Nc2ccccc2)nc2ccc(F)cc2c1C(=O)O | > 10000
20 | 34 | COc1cccc(-c2cccc3c2CCN3c2nc3ccc(F)cc3c(C(=O)O)c2C)c1 | 4
21 | 21 | Cc1c(Oc2cccc(-c3ccccc3)c2)nc2ccc(F)cc2c1C(=O)O | 210
22 | > 1000 | Cc1c(Oc2ccc(-c3ccccc3)cc2)nc2ccc(F)cc2c1C(=O)O | > 10000
23 | > 130 | Cc1c(-c2c[nH]c3c(-c4ccccc4)cccc23)nc2ccc(F)cc2c1C(=O)O | 1600
24 | > 200 | Cc1c(OCc2ccc(-c3ccccc3)cc2)nc2ccc(F)cc2c1C(=O)O | > 10000
25 | 23 | Cc1c(-c2cn(C)c3c(-c4cccc(C(F)(F)F)c4)cccc23)nc2ccc(F)cc2c1C(=O)O | 7
26 | > 390 | CC(=O)N(c1cccc(-c2ccccc2)c1)c1nc2ccc(F)cc2c(C(=O)O)c1C | > 10000
27 | 40 | COc1ccccc1-c1cccc2c(-c3nc4ccc(F)cc4c(C(=O)O)c3C)cn(C)c12 | 650

Source: ChEMBL document CHEMBL1130874, “Heteroatom- and carbon-linked biphenyl analogs of Brequinar as immunosuppressive agents” (Bioorg Med Chem Lett, 1998)
